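Dose response: 5 concentrations. Exposure: 48 h. Format: 96-well plates. Endpoint: linear interpolation; highest concentration if not reached. GI50 is the concentration that inhibits growth by half.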 Calls of active or inactive are those of the source. No stated cut-off is given here; in the data, active = GI50 up to about 1.1 µM and inactive = higher.
Legend:
Assay in all cases: NCI-60 cell line screen, 48 h
[1] = tested on: 786-0
[2] = tested on: HCT-116
[3] = tested on: SF-539
[4] = tested on: MDA-MB-435
[5] = tested on: MOLT-4
[6] = tested on: NCI-H226
[7] = tested on: UO-31
[8] = tested on: ACHN
[9] = tested on: CAKI-1
[10] = tested on: NCI-H460
[11] = tested on: RXF 393
[12] = tested on: M14
[13] = tested on: HT-29
[14] = tested on: COLO 205
[15] = tested on: MDA-MB-231
[16] = tested on: RPMI-8226
[17] = tested on: SW-620
[18] = tested on: NCI-H522
[19] = tested on: K562
[20] = tested on: A549
[21] = tested on: T47D
[22] = tested on: MDA-N
[23] = tested on: HCT-15
[24] = tested on: SK-OV-3
[25] = tested on: Malme-3M
[26] = tested on: NCI/ADR-RES
[27] = tested on: HL-60
[28] = tested on: SK-MEL-5
[29] = tested on: HOP-92
[30] = tested on: SF-268
[31] = tested on: OVCAR-5
[32] = tested on: IGROV-1
[33] = tested on: NCI-H23
[34] = tested on: U-251
[35] = tested on: Hs-578T
[36] = tested on: EKVX
[37] = tested on: BT-549
[38] = tested on: UACC-62
[39] = tested on: PC-3
[40] = tested on: SK-MEL-2
[41] = tested on: SNB-19
[42] = tested on: SNB-75
[43] = tested on: SN12C
[44] = tested on: SR
[45] = tested on: CCRF-CEM
[46] = tested on: SF-295
[47] = tested on: DU-145
[48] = tested on: MCF7
[49] = tested on: KM12
[50] = tested on: OVCAR-8
[51] = tested on: UACC-257
[52] = tested on: OVCAR-4
[53] = tested on: SK-MEL-28
[54] = tested on: OVCAR-3
[55] = tested on: TK-10
[56] = tested on: LOX IMVI
[57] = tested on: HCC 2998
[58] = tested on: HOP-62

CC(NC(=O)C(C)C(=O)Nc1ccc(C(F)(F)F)cc1)C(N)=O (stereo unspecified)
GI50 [1]: > 100 µM (inactive)
GI50 [2]: > 100 µM (inactive)
GI50 [3]: > 100 µM (inactive)
GI50 [4]: > 100 µM (inactive)
GI50 [5]: > 10 µM (inactive)
GI50 [6]: > 100 µM (inactive)
GI50 [7]: > 100 µM (inactive)
GI50 [8]: > 100 µM (inactive)
GI50 [9]: > 100 µM (inactive)
GI50 [10]: > 100 µM (inactive)
GI50 [11]: > 100 µM (inactive)
GI50 [12]: > 100 µM (inactive)
GI50 [13]: > 100 µM (inactive)
GI50 [14]: > 100 µM (inactive)
GI50 [15]: > 100 µM (inactive)
GI50 [16]: > 100 µM (inactive)
GI50 [17]: > 100 µM (inactive)
GI50 [18]: > 100 µM (inactive)
GI50 [19]: > 100 µM (inactive)
GI50 [20]: > 100 µM (inactive)
GI50 [21]: > 100 µM (inactive)
GI50 [22]: > 100 µM (inactive)
GI50 [23]: > 100 µM
GI50 [24]: > 100 µM (inactive)
GI50 [25]: > 100 µM (inactive)
GI50 [26]: > 100 µM (inactive)
GI50 [27]: > 100 µM (inactive)
GI50 [28]: > 100 µM (inactive)
GI50 [29]: > 100 µM (inactive)
GI50 [30]: > 100 µM (inactive)
GI50 [31]: > 100 µM (inactive)
GI50 [32]: > 100 µM (inactive)
GI50 [33]: > 100 µM (inactive)
GI50 [34]: > 100 µM (inactive)
GI50 [35]: > 100 µM (inactive)
GI50 [36]: > 100 µM (inactive)
GI50 [37]: > 100 µM (inactive)
GI50 [38]: > 100 µM (inactive)
GI50 [39]: > 100 µM (inactive)
GI50 [40]: > 100 µM (inactive)
GI50 [41]: 94 µM (inactive)
GI50 [42]: > 100 µM (inactive)
GI50 [43]: > 100 µM (inactive)
GI50 [44]: > 10 µM (inactive)
GI50 [45]: > 100 µM (inactive)
GI50 [46]: > 100 µM (inactive)
GI50 [47]: > 100 µM (inactive)
GI50 [48]: > 100 µM (inactive)
GI50 [49]: > 100 µM (inactive)
GI50 [50]: > 100 µM (inactive)
GI50 [51]: > 100 µM (inactive)

Cc1ccc(/C=C2\N=C(N3CCCCC3)NC2=O)cc1
GI50 [1]: > 100 µM (inactive)
GI50 [2]: > 100 µM (inactive)
GI50 [3]: > 100 µM (inactive)
GI50 [4]: > 100 µM (inactive)
GI50 [5]: > 100 µM (inactive)
GI50 [6]: > 100 µM (inactive)
GI50 [7]: > 100 µM (inactive)
GI50 [8]: > 100 µM (inactive)
GI50 [9]: > 100 µM (inactive)
GI50 [11]: > 100 µM (inactive)
GI50 [12]: > 100 µM (inactive)
GI50 [13]: 95.9 µM (inactive)
GI50 [14]: > 100 µM (inactive)
GI50 [15]: > 100 µM (inactive)
GI50 [16]: 60.8 µM (inactive)
GI50 [17]: > 100 µM (inactive)
GI50 [18]: 74.5 µM (inactive)
GI50 [20]: > 100 µM (inactive)
GI50 [21]: 58.1 µM (inactive)
GI50 [22]: > 100 µM (inactive)
GI50 [23]: > 100 µM
GI50 [24]: > 100 µM (inactive)
GI50 [25]: > 100 µM (inactive)
GI50 [26]: 70.8 µM (inactive)
GI50 [27]: 71.1 µM (inactive)
GI50 [29]: > 100 µM (inactive)
GI50 [30]: 98.6 µM (inactive)
GI50 [52]: > 100 µM (inactive)
GI50 [31]: > 100 µM (inactive)
GI50 [53]: > 100 µM (inactive)
GI50 [33]: > 100 µM (inactive)
GI50 [54]: > 100 µM (inactive)
GI50 [34]: > 100 µM (inactive)
GI50 [35]: 70.8 µM (inactive)
GI50 [36]: > 100 µM (inactive)
GI50 [37]: > 100 µM (inactive)
GI50 [55]: > 100 µM (inactive)
GI50 [38]: > 100 µM (inactive)
GI50 [56]: 94.4 µM (inactive)
GI50 [39]: > 100 µM (inactive)
GI50 [40]: > 100 µM (inactive)
GI50 [41]: > 100 µM (inactive)
GI50 [43]: > 100 µM (inactive)
GI50 [44]: > 100 µM (inactive)
GI50 [45]: > 100 µM (inactive)
GI50 [46]: > 100 µM (inactive)
GI50 [47]: > 100 µM (inactive)
GI50 [48]: > 100 µM (inactive)
GI50 [49]: > 100 µM (inactive)
GI50 [57]: 58.1 µM (inactive)
GI50 [50]: 64.1 µM (inactive)
GI50 [58]: > 100 µM (inactive)
GI50 [51]: > 100 µM (inactive)

Clc1ccc(-c2nc3cc(Cl)ccc3[nH]2)cc1
GI50 [1]: 35.2 µM (inactive)
GI50 [2]: 22.9 µM (inactive)
GI50 [3]: 22.6 µM (inactive)
GI50 [4]: 27.6 µM (inactive)
GI50 [5]: 34.1 µM (inactive)
GI50 [6]: 50 µM (inactive)
GI50 [7]: 26.2 µM (inactive)
GI50 [8]: 39.8 µM (inactive)
GI50 [9]: > 100 µM (inactive)
GI50 [10]: 31.3 µM (inactive)
GI50 [11]: > 100 µM (inactive)
GI50 [12]: 36.4 µM (inactive)
GI50 [13]: 33.6 µM (inactive)
GI50 [14]: 19.6 µM (inactive)
GI50 [15]: > 100 µM (inactive)
GI50 [16]: 26.8 µM (inactive)
GI50 [17]: 42.6 µM (inactive)
GI50 [18]: 19.6 µM (inactive)
GI50 [19]: 38.9 µM (inactive)
GI50 [20]: 29.3 µM (inactive)
GI50 [21]: 26.5 µM (inactive)
GI50 [22]: 29.1 µM (inactive)
GI50 [23]: 30.3 µM
GI50 [24]: 39.3 µM (inactive)
GI50 [25]: 48.2 µM (inactive)
GI50 [26]: 19.9 µM (inactive)
GI50 [27]: 39.9 µM (inactive)
GI50 [28]: 32.7 µM (inactive)
GI50 [29]: 27.7 µM (inactive)
GI50 [30]: 45.5 µM (inactive)
GI50 [52]: 58.1 µM (inactive)
GI50 [32]: 43.4 µM (inactive)
GI50 [53]: 47.9 µM (inactive)
GI50 [33]: 27.6 µM (inactive)
GI50 [54]: 28.9 µM (inactive)
GI50 [34]: 31.5 µM (inactive)
GI50 [35]: 30.8 µM (inactive)
GI50 [36]: 34.9 µM (inactive)
GI50 [37]: 32.2 µM (inactive)
GI50 [55]: 30.8 µM (inactive)
GI50 [38]: 32.7 µM (inactive)
GI50 [56]: 29.1 µM (inactive)
GI50 [39]: 27.2 µM (inactive)
GI50 [40]: 26.1 µM (inactive)
GI50 [41]: 41.4 µM (inactive)
GI50 [42]: 40.1 µM (inactive)
GI50 [43]: 26.2 µM (inactive)
GI50 [44]: 32.7 µM (inactive)
GI50 [45]: 54 µM (inactive)
GI50 [46]: 28.2 µM (inactive)
GI50 [47]: 31.8 µM (inactive)
GI50 [48]: 35.6 µM (inactive)
GI50 [49]: 24 µM (inactive)
GI50 [57]: 29.8 µM (inactive)
GI50 [50]: 37.6 µM (inactive)
GI50 [58]: 34.4 µM (inactive)
GI50 [51]: 43.3 µM (inactive)
